Measurements: PubChem BioAssay AID1845208 (Molecular Pharmacology Branch, DTP, NCI, 2023)

System: NCI-H196 SCLC complex tumor spheroid viability
Assay: Anticancer human tumor NCI-H196 cell line growth inhibition;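 further: spheroids exposed to compounds for 7 days before readout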;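 on viability, T/C: 100% = DMSO vehicle control wells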
Details: for IC50: curve of first compound; for viability, T/C: stronger effect = lower value
How it was run: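 Complex spheroids of malignant cells with endothelial cells and mesenchymal stem cells; agents alone or combined, from near clinical Cmax (or 10 microM if unknown) down in half-log steps, 0.25% DMSO final.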

[1] = second compound 30 pM, first compound 0.00949 µM
[2] = second compound 30 pM, first compound 0.03 µM
[3] = second compound 30 pM, first compound 0.0949 µM
[4] = second compound 30 pM, first compound 0.3 µM
[5] = second compound 30 pM, first compound 0.949 µM
[6] = second compound 30 pM, first compound 3 µM
[7] = second compound 94.9 pM, first compound 0.00949 µM
[8] = second compound 94.9 pM, first compound 0.03 µM
[9] = second compound 94.9 pM, first compound 0.0949 µM
[10] = second compound 94.9 pM, first compound 0.3 µM
[11] = second compound 94.9 pM, first compound 0.949 µM
[12] = second compound 94.9 pM, first compound 3 µM
[13] = second compound 0.0003 µM, first compound 0.00949 µM
[14] = second compound 0.0003 µM, first compound 0.03 µM
[15] = second compound 0.0003 µM, first compound 0.0949 µM
[16] = second compound 0.0003 µM, first compound 0.3 µM
[17] = second compound 0.0003 µM, first compound 0.949 µM
[18] = second compound 0.0003 µM, first compound 3 µM
[19] = second compound 0.000949 µM, first compound 0.00949 µM
[20] = second compound 0.000949 µM, first compound 0.03 µM
[21] = second compound 0.000949 µM, first compound 0.0949 µM
[22] = second compound 0.000949 µM, first compound 0.3 µM
[23] = second compound 0.000949 µM, first compound 0.949 µM
[24] = second compound 0.000949 µM, first compound 3 µM
[25] = second compound 0.003 µM, first compound 0.00949 µM
[26] = second compound 0.003 µM, first compound 0.03 µM
[27] = second compound 0.003 µM, first compound 0.0949 µM
[28] = second compound 0.003 µM, first compound 0.3 µM
[29] = second compound 0.003 µM, first compound 0.949 µM
[30] = second compound 0.003 µM, first compound 3 µM

Row | SMILES | IC50 (second compound 30 pM) [nM] | IC50 (second compound 94.9 pM) [nM] | IC50 (second compound 0.0003 µM) [nM] | IC50 (second compound 0.000949 µM) [nM] | IC50 (second compound 0.003 µM) [nM] | viability, T/C [1] [%] | viability, T/C [2] [%] | viability, T/C [3] [%] | viability, T/C [4] [%] | viability, T/C [5] [%] | viability, T/C [6] [%] | viability, T/C [7] [%] | viability, T/C [8] [%] | viability, T/C [9] [%] | viability, T/C [10] [%] | viability, T/C [11] [%] | viability, T/C [12] [%] | viability, T/C [13] [%] | viability, T/C [14] [%] | viability, T/C [15] [%] | also measured
1 | CNCc1ccc(-c2cc(-c3nc(-c4ccc(S(=O)(=O)C(C)C)cc4)cnc3N)on2)cc1 + COc1cc2c(cc1O)CCNC21CSC2c3c(OC(C)=O)c(C)c4c(c3C(COC1=O)N1C(O)C3Cc5cc(C)c(OC)c(O)c5C(C21)N3C)OCO4 | > 3000 | > 3000 | > 3000 | > 3000 | < 9.49 | 107 | 99 | 104 | 103 | 98 | 91.4 | 105 | 107 | 103 | 107 | 96.4 | 95.9 | 112 | 112 | 112 | viability, T/C [16]: 105%; viability, T/C [17]: 96.4%; viability, T/C [18]: 93.3%; viability, T/C [19]: 99.2%; viability, T/C [20]: 103%; viability, T/C [21]: 103%; viability, T/C [22]: 94.3%; viability, T/C [23]: 91.3%; viability, T/C [24]: 86.6%; viability, T/C [25]: 9.83%; viability, T/C [26]: 26.7%; viability, T/C [27]: 27.7%; viability, T/C [28]: 13.2%; viability, T/C [29]: 18.2%; viability, T/C [30]: 40.3%
2 | Cc1sc2c(c1C)C(c1ccc(Cl)cc1)=NC(CC(=O)Nc1ccc(O)cc1)c1nnc(C)n1-2 (stereo not given) + COc1cc2c(cc1O)CCNC21CSC2c3c(OC(C)=O)c(C)c4c(c3C(COC1=O)N1C(O)C3Cc5cc(C)c(OC)c(O)c5C(C21)N3C)OCO4 | 631 | 1020 | 2540 | > 3000 | < 9.49 | 94.4 | 96.4 | 93.8 | 69.3 | 39.7 | 21.8 | 103 | 100 | 95 | 80.1 | 51.4 | 26.9 | 110 | 110 | 102 | viability, T/C [16]: 88.7%; viability, T/C [17]: 65.7%; viability, T/C [18]: 47.4%; viability, T/C [19]: 89.6%; viability, T/C [20]: 88%; viability, T/C [21]: 80.9%; viability, T/C [22]: 87.3%; viability, T/C [23]: 68.2%; viability, T/C [24]: 52.7%; viability, T/C [25]: 6.44%; viability, T/C [26]: 6.85%; viability, T/C [27]: 6.03%; viability, T/C [28]: 8.32%; viability, T/C [29]: 2.93%; viability, T/C [30]: 0.8%
